Here are results for 15 compounds from patent EP4741392A1, “1H-PYRAZOLO[4,3-C]PYRIDINE COMPOUND, AND COMPOSITION THEREOF AND USE THEREOF” (Shenzhen TargetRx Co., Ltd., priority 2023, dated 2025).

The target in one test is T1, BTK C481S (Homo sapiens, UniProt Q06187, C481S).
T1 construct: purchased Carna 08-547
In words: Kinase activity inhibition assay (HTRF TK Kit). Format: biochemical. From the text: (§1) In this assay, the HTRF TK Kit (Catalog No. 62TK0PEC) provided by Cisbio was used to detect the inhibitory activity of compounds on BTK kinase, BTK T474I kinase and BTK C481 S kinase and the selectivity of compounds relative to EGFR, ITK and TEC kinases.
(§2) Reagents and consumables: BTK kinase (Invitrogen, Catalog No. PV3587), BTK C481S (Carna, Product No. 08-547), BTK T474I(SignalChem Product No. B10-12HH), ITK (Cama, Product No. 08-181), EGFR (Cama, Product No. 08-115), TEC (Carna, Product No. 08-182), HTRF-TK kit (Cisbio, Product No. 62TK0PEC), MgCl2 (Sigma, Product No. M1028), MnCl2 (Sigma, Product No. M1787), DTT (Sigma, Product No. D0632), ATP (Sigma, Product No. A7699-1g), DMSO (Sigma, Product No. D2650), 384-well plate (PE, Product No. 6008280).
(§3) The entire operation steps were carried out on ice, and the total reaction volume was 10µL. A compound (4µL), substrate and ATP (4µL), and kinase (2µL) were added in sequence to a 384-well plate, and the plate was shaken for 30 seconds. The mixture was reacted at room temperature for an appropriate time, and then the detection reagent was added. The resulting mixture was reacted at room temperature for 1 hour, and then the plate was assayed with a microplate reader. The specific steps were as follows: • a) a 1 × kinase buffer solution required for the kinase assay was calculated according to the amount of the test compound, and prepared as needed; • b) 2.5 × working concentration of a compound was prepared, 100-fold gradient concentration solutions of a compound were diluted by 40 × to the desired concentration, respectively, mixed well, and added to each well at 4 µL per well; • c) 5 × working concentration of the substrate and ATP were prepared, mixed in a ratio of 1:1 before being added to the 384-well plate, and added to each well at 4 µL per well; • d) 5 × working concentration of a kinase was prepared, 2 µL of which was added to each well; • e) the plate was shaken on a microplate shaker for 30 seconds, sealed with a sealing membrane, and the mixture was reacted at room temperature for an appropriate time; • f) 4 × working concentration of streptavidin XL-665 and TK antibody-cryptate compound were prepared, mixed in a ratio of 1:1 before being added to the 384-well plate, and added to each well at 10 µL per well; • g) the mixture was reacted at room temperature for 1 hour, and then the plate was read; • h) the wells with only substrate, ATP and 1% DMSO added but no kinase were blank control wells, and the wells with only substrate, ATP, 1% DMSO and kinase were positive control wells.
(§4) Readings: The values of 620 nm (cryptate) and 665 nm (XL665) were read with a BioTek Synerg Neo2 microplate reader, the ratio of 665/620 for each well was calculated, and the data were exported.
(§5) Data analysis: IC50 was calculated using GraphPad Prism 7.0 software.
(§6) The IC50 (half-maximal inhibitory concentration) of the compound was obtained using the following nonlinear fitting formula: Y = Bottom + (Top−Bottom)/(1+10^(∧)((LogIC50−X)*HillSlope)) [formula] • X: Log value of the compound concentration • Y: Inhibition rate (% inhibition) • Top: Maximum response • Bottom: Baseline response • HillSlope: Slope of the curve
(§7) The formula for calculating kinase inhibition rate (inhibition rate %) was: [formula]
For orientation: TR-FRET usually uses a lanthanide donor and a delayed reading to cut background.

In the next test the target is T2, BTK T474I (Homo sapiens, UniProt Q06187, T474I).
T2 construct: purchased SignalChem B10-12HH
T2 sequence (Q06187 whole entry T474I): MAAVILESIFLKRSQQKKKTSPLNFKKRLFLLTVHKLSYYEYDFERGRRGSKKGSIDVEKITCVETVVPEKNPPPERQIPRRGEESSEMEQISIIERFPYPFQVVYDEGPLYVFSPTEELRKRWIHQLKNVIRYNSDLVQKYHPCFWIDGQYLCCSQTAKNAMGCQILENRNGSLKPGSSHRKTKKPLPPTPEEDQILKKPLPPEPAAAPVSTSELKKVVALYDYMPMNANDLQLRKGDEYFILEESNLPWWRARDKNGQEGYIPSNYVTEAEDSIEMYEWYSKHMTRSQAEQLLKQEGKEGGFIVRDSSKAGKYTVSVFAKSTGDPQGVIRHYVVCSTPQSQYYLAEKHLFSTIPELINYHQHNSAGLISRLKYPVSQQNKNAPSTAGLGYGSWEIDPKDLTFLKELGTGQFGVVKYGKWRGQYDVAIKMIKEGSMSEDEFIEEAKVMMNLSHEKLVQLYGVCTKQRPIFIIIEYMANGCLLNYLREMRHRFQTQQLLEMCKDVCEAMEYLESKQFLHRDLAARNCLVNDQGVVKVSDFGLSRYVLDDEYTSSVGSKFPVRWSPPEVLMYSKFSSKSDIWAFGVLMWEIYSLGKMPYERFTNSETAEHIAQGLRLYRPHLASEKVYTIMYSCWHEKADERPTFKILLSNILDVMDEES
In words: Kinase activity inhibition assay (HTRF TK Kit). The class given is biochemical.
Source text: as §1, §2, §3, §4, §5, §6, §7

The target in a further test is T3, BTK kinase (Homo sapiens, UniProt Q06187).
T3 construct: purchased Invitrogen PV3587
T3 sequence (Q06187 whole entry): as the sequence (Q06187 whole entry T474I) above, with I474T counted along it
In words: Kinase activity inhibition assay (HTRF TK Kit). Format: biochemical.
Source text: as §1, §2, §3, §4, §5, §6, §7

The next test relates to NIH/3T3 BTK WT cells. In words: Phosphor-BTK(Y223) assay, adherent cells. The class given is cell-based. The following applies: Mus musculus, NIH3T3, phosphorylated BTK Y223, NIH/3T3 BTK WT cells; read-out: NIH/3T3 BTK-WT pBTK. An outline of the steps:
(§8)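 NIH/3T3 cells expressing WT or C481S BTK were pretreated with compound for 0.5 h at 37 °C, then stimulated with 1 mM Na3VO4 (final) for 2 h. Lysates were assayed by HTRF for p-BTK Y223 using the 665/620 nm ratio. IC50 was obtained by nonlinear fit of % inhibition versus 0.5% DMSO control.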

The subject of a further test is NIH/3T3 BTK C481S cells. In words: Phosphor-BTK(Y223) assay, adherent cells. The following applies: Mus musculus, NIH3T3, phosphorylated BTK Y223, NIH/3T3 BTK C481S cells; read-out: NIH/3T3 BTK-C481S pBTK. The class given is cell-based. An outline of the steps:
as §8

Some results are limits rather than exact numbers.

T1 sequence (Q06187 whole entry C481S): as the sequence (Q06187 whole entry T474I) above, with I474T, C481S counted along it

For `COc1ccc(F)cc1C(=O)NCc1ccc(-c2ncc(-c3ccncn3)c3[nH]nc(N)c23)cc1` [Example 19], the IC50 is 1 to 5 nM at BTK C481S; 50 to 500 nM at BTK T474I; 1 to 5 nM on BTK kinase; no more than 5 nM with NIH/3T3 BTK WT cells; 5 to 10 nM in the test with NIH/3T3 BTK C481S cells.
For the compound `COc1ccc(F)cc1C(=O)NCc1ccc(-c2ncc(-c3ccc(F)cn3)c3[nH]nc(N)c23)cc1` [Example 21, N-(4-(3-amino-7-(5-fluoropyridin-2-yl)-1H-pyrazolo[4,3-c]pyridin-4-yl)benzyl)-5-fluoro-2-methoxybenzamide], the IC50 is 5 to 50 nM at BTK C481S; 50 to 500 nM on BTK T474I; 1 to 5 nM at BTK kinase; no more than 5 nM in the test with NIH/3T3 BTK WT cells; no more than 5 nM in the test with NIH/3T3 BTK C481S cells.
Take `COc1ccc(F)cc1C(=O)NCc1ccc(-c2ncc(-c3cnn(C)c3)c3[nH]nc(N)c23)cc1` [Example 22, N-(4-(3-amino-7-(1-methyl-1H-pyrazol-4-yl)-1H-pyrazolo[4,3-c]pyridin-4-yl)benzyl)-5-fluoro-2-oxybenzamide]: the IC50 on BTK C481S was 5 to 50 nM; at BTK T474I, 50 to 500 nM; on BTK kinase, 5 to 50 nM; in the test on NIH/3T3 BTK WT cells, greater than 50 nM; in the test with NIH/3T3 BTK C481S cells, greater than 50 nM.
With `COc1ccc(F)cc1C(=O)NCc1ccc(-c2ncc(-c3ccn(C)n3)c3[nH]nc(N)c23)cc1` [Example 23, N-(4-(3-amino-7-(1-methyl-1H-pyrazol-3-yl)-1H-pyrazolo[4,3-c]pyridin-4-yl)benzyl)-5-fluoro-2-methoxybenzamide], the IC50 on BTK C481S was no more than 1 nM; on BTK T474I, 50 to 500 nM; on BTK kinase it was no more than 1 nM; with NIH/3T3 BTK WT cells, no more than 5 nM; in the test on NIH/3T3 BTK C481S cells, no more than 5 nM.
For the compound `COc1ccc(F)cc1C(=O)NCc1ccc(-c2ncc(-c3ccc(C(F)(F)F)cn3)c3[nH]nc(N)c23)cc1` [Example 24, N-(4-(3-amino-7-(5-(trifluoromethyl)pyridin-2-yl)-1H-pyrazolo[4,3-c]pyridin-4-yl)benzyl)-5-fluoro-2-methoxybenzamide], the IC50 was 5 to 50 nM on BTK C481S; 50 to 500 nM at BTK T474I; 5 to 50 nM at BTK kinase; no more than 5 nM in the test on NIH/3T3 BTK WT cells; no more than 5 nM in the test with NIH/3T3 BTK C481S cells.
Consider `COc1ccc(F)cc1C(=O)NCc1ccc(-c2ncc(-c3ccn(CC(=O)N(C)C)n3)c3[nH]nc(N)c23)cc1` [Example 25, N-(4-(3-amino-7-(1-(2-(dimethylamino)-2-oxoethyl)-1H-pyrazol-3-yl)-1H-pyrazolo[4,3-c]pyridin-4-yl)benzyl)-5-fluoro-2-methoxybenzamide], for which the IC50 on BTK C481S was 1 to 5 nM; on BTK T474I, 50 to 500 nM; at BTK kinase it was 1 to 5 nM; in the test on NIH/3T3 BTK WT cells, 10 to 50 nM; in the test on NIH/3T3 BTK C481S cells, 10 to 50 nM.
On to `CNC(=O)Cn1ccc(-c2cnc(-c3ccc(CNC(=O)c4cc(F)ccc4OC)cc3)c3c(N)n[nH]c23)n1` [Example 26, N-(4-(3-amino-7-(1-(2-(methylamino)-2-oxoethyl)-1H-pyrazol-3-yl)-1H-pyrazolo[4,3-c]pyridin-4-yl)benzyl)-5-fluoro-2-methoxybenzamide], for which the IC50 at BTK C481S was 1 to 5 nM; at BTK T474I it was 50 to 500 nM; at BTK kinase it was 1 to 5 nM; with NIH/3T3 BTK WT cells, 10 to 50 nM; in the test on NIH/3T3 BTK C481S cells it was 10 to 50 nM.
Take `COc1ccc(F)cc1C(=O)NCc1ccc(-c2ncc(-c3ccn(CC(F)(F)F)n3)c3[nH]nc(N)c23)cc1` [Example 28, N-(4-(3-amino-7-(1-(2,2,2-trifluoroethyl)-1H-pyrazol-3-yl)-1H-pyrazolo[4,3-c]pyridin-4-yl)benzyl)-5-fluoro-2-methoxybenzamide]: the IC50 was 1 to 5 nM at BTK C481S; 50 to 500 nM at BTK T474I; 1 to 5 nM on BTK kinase; no more than 5 nM in the test on NIH/3T3 BTK WT cells; 10 to 50 nM in the test with NIH/3T3 BTK C481S cells.
For the compound `COc1ccc(F)cc1C(=O)NCc1ccc(-c2ncc(-c3cn(C)cn3)c3[nH]nc(N)c23)cc1` [Example 30, N-(4-(3-amino-7-(1-methyl-1H-imidazol-4-yl)-1H-pyrazolo[4,3-c]pyridin-4-yl)benzyl)-5-fluoro-2-methoxybenzamide], the IC50 at BTK C481S is 1 to 5 nM; on BTK T474I it was 50 to 500 nM; at BTK kinase, 1 to 5 nM; with NIH/3T3 BTK WT cells it was no more than 5 nM; in the test on NIH/3T3 BTK C481S cells, 5 to 10 nM.
On to `COc1ccc(F)cc1C(=O)NCc1ccc(-c2ncc(-c3cc[nH]n3)c3[nH]nc(N)c23)cc1` [Example 31, N-(4-(3-amino-7-(1H-pyrazol-3-yl)-1H-pyrazolo[4,3-c]pyridin-4-yl)benzyl)-5-fluoro-2-methoxybenzamide], for which the IC50 lay in the range of 1 to 5 nM on BTK C481S; 50 to 500 nM at BTK T474I; 1 to 5 nM at BTK kinase; 5 to 10 nM in the test on NIH/3T3 BTK WT cells; 10 to 50 nM with NIH/3T3 BTK C481S cells.
For the compound `COc1ccc(F)cc1C(=O)NCc1ccc(-c2ncc(-c3ccc(S(C)(=O)=O)cn3)c3[nH]nc(N)c23)cc1` [Example 35, N-(4-(3-amino-7-(5-(methylsulfonyl)pyridin-2-yl)-1H-pyrazolo[4,3-c]pyridin-4-yl)benzyl)-5-fluoro-2-methoxybenzamide], the IC50 on BTK C481S was no more than 1 nM; on BTK T474I it was 5 to 50 nM; on BTK kinase, no more than 1 nM; with NIH/3T3 BTK WT cells, no more than 5 nM; with NIH/3T3 BTK C481S cells, no more than 5 nM.
As to `COc1ccc(F)cc1C(=O)NCc1ccc(-c2ncc(-c3ncc(F)cn3)c3[nH]nc(N)c23)cc1` [Example 36, N-(4-(3-amino-7-(5-fluoropyrimidin-2-yl)-1H-pyrazolo[4,3-c]pyridin-4-yl)benzyl)-5-fluoro-2-methoxybenzamide], the IC50 fell in the range of 1 to 5 nM at BTK C481S; 50 to 500 nM at BTK T474I; 1 to 5 nM on BTK kinase; 5 to 10 nM with NIH/3T3 BTK WT cells; 5 to 10 nM in the test on NIH/3T3 BTK C481S cells.
Take `COc1ccc(F)cc1C(=O)NCc1ccc(-c2ncc(-c3ccc(C)cn3)c3[nH]nc(N)c23)cc1` [Example 37, N-(4-(3-amino-7-(5-methylpyridin-2-yl)-1H-pyrazolo[4,3-c]pyridin-4-yl)benzyl)-5-fluoro-2-methoxybenzamide]: the IC50 is no more than 1 nM on BTK C481S; 50 to 500 nM on BTK T474I; no more than 1 nM on BTK kinase; no more than 5 nM in the test on NIH/3T3 BTK WT cells; no more than 5 nM in the test on NIH/3T3 BTK C481S cells.
With `COc1ccc(F)cc1C(=O)NCc1ccc(-c2ncc(-c3ccc(Cl)cn3)c3[nH]nc(N)c23)cc1` [Example 38, N-(4-(3-amino-7-(5-chloropyridin-2-yl)-1H-pyrazolo[4,3-c]pyridin-4-yl)benzyl)-5-fluoro-2-methoxybenzamide], the IC50 is 1 to 5 nM on BTK C481S; 50 to 500 nM at BTK T474I; 5 to 50 nM at BTK kinase; no more than 5 nM in the test on NIH/3T3 BTK WT cells; no more than 5 nM in the test with NIH/3T3 BTK C481S cells.
With `COc1ccc(F)cc1C(=O)NCc1ccc(-c2ncc(-c3ncc(C)cn3)c3[nH]nc(N)c23)cc1` [Example 39, N-(4-(3-amino-7-(5-methylpyrimidin-2-yl)-1H-pyrazolo[4,3-c]pyridin-4-yl)benzyl)-5-fluoro-2-methoxybenzamide], the IC50 at BTK C481S is no more than 1 nM; on BTK T474I, 5 to 50 nM; at BTK kinase, no more than 1 nM; in the test on NIH/3T3 BTK WT cells it was no more than 5 nM; with NIH/3T3 BTK C481S cells, no more than 5 nM.
